The Km is the concentration of substrate that gives half-maximal velocity.

Where two headings read alike, the source gives them in different places.

The values below come from patent US5972670A, “Blue copper oxidase mutants with enhanced activity” (priority 1998, dated 1999).

Series [1] has as its target Rhizoctonia solani laccase isozyme 4 (RsL) mutant "T" L466V/E467S/A468G (pJiWa85) (Thanatephorus cucumeris, UniProt Q02081). Format: biochemical. Here is the method:
(§1) The molecular weights of the mature laccases are used to calculate both extinction coefficients and turnover numbers. The molecular weights are determined from the deduced amino acid sequences of the DNA sequences (FIG. 6: SEQ ID NOS:24 and 25, and FIG. 7: SEQ ID NOS:26 and 27). Protein concentrations (expressed as subunits) are measured based on the extinction coefficients determined by quantitative amino acid analysis.
(§2) Km and kcat are obtained from the initial rate (v), enzyme concentration (E), and substrate concentration (S) in accordance to the equation v=kcat ES/(Km +S) by non-linear regression fitting using the Prizm program (GraphPad, San Diego, Calif.). […] The O2 concentration in air-saturated buffer solution is assumed as the same in plain water (0.28 mM).

In series [2] the target is Rhizoctonia solani laccase isozyme 4 (RsL) mutant "M" L470F (pJiWa86) (Thanatephorus cucumeris, UniProt Q02081). Format: biochemical. On the procedure:
as §1, §2

Series [3] has as its target Myceliophthora thermophila laccase (MtL) mutant "M" L513F (pRaMB17M) (Thermothelomyces thermophilus, UniProt G2QG31, form not given/L556F). Format: biochemical. Here is the method:
as §1, §2

Series [4] deals with Myceliophthora thermophila laccase (MtL) mutant "T" V509L/S510E/G511A (pBANe22T) (Thermothelomyces thermophilus, UniProt G2QG31, G554A/S553E/V552L). Format: biochemical. On the procedure: as §1, §2
In series [5] the target is T1, Rhizoctonia solani laccase isozyme 4 (rsl4; RsL), wild type (pJiWa59), SEQ ID NO:25 (Thanatephorus cucumeris, UniProt Q02081).
T1 sequence (Q02081 21-531): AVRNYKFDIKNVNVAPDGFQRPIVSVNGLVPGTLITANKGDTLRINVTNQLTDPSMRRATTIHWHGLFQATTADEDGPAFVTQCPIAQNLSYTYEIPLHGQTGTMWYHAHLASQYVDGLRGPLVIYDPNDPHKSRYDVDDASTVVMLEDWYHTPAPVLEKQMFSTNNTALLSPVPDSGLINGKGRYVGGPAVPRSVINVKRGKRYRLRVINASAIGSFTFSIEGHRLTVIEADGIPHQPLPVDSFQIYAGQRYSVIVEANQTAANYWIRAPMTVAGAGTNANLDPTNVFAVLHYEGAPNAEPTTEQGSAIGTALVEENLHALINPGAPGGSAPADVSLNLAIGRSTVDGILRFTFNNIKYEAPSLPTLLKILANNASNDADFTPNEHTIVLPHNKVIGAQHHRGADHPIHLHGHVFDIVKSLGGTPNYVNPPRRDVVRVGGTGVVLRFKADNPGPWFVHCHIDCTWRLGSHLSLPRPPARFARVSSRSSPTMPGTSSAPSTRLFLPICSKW
Kind of series: Syringaldazine and ABTS oxidase kinetics (Km, kcat), RsL wt. It is filed as biochemical. The following applies: 8 mM MES-NaOH buffer, pH 5.3, spectroscopic. On the procedure: as §1, §2

The target of series [6] is T2, Myceliophthora thermophila laccase (lcc-1; MtL), wild type (pRaMB17), SEQ ID NO:27 (Thermothelomyces thermophilus, UniProt G2QG31).
T2 sequence (G2QG31 with tags, fused parts or gaps INS108NSII/R109G/T291C/S323N/P398A/P430A/T522S/A533S/H588R): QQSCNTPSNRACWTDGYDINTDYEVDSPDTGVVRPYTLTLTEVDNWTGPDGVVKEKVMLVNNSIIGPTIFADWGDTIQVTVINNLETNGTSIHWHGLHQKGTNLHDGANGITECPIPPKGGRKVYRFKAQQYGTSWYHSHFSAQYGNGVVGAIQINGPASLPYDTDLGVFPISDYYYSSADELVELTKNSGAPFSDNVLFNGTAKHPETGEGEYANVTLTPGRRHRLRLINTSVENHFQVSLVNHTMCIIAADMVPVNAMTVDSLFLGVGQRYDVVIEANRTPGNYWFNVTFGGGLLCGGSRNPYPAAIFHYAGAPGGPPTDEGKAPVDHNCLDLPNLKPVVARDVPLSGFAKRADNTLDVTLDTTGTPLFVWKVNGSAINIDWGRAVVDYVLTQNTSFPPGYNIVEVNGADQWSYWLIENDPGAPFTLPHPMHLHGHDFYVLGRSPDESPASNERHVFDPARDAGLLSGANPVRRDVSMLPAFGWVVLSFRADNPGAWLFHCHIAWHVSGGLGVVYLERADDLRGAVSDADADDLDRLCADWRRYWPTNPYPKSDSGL
Kind of series: Syringaldazine and ABTS oxidase kinetics (Km, kcat), MtL wt. The following applies: 8 mM MES-NaOH buffer, pH 5.3, spectroscopic. Here is the method: as §1, §2

Substrate in series [7]: CCn1c(=NN=c2sc3cc(S(=O)(=O)O)ccc3n2CC)sc2cc(S(=O)(=O)O)ccc21
Kind of series: purified protein, by the assay type. The following applies: 8 mM MES-NaOH buffer, pH 5.3, spectroscopic.

Substrate in series [8]: COc1cc(C=NN=Cc2cc(OC)c(O)c(OC)c2)cc(OC)c1O
Kind of series: purified protein, by the assay type. The following applies: 8 mM MES-NaOH buffer, pH 5.3, spectroscopic.

[9] abbreviates: 8 mM MES-NaOH buffer, pH 5.3, spectroscopic.
Setting [10] is: read-out: Km (ABTS), 8 mM MES-NaOH buffer, pH 5.3, spectroscopic.
Setting [11] is: read-out: Km (SGZ), 8 mM MES-NaOH buffer, pH 5.3, spectroscopic.

Take `CCn1c(=NN=c2sc3cc(S(=O)(=O)O)ccc3n2CC)sc2cc(S(=O)(=O)O)ccc21` [ABTS, 2,2'-azinobis(3-ethylbenzthiazoline-6-sulfonic acid)]: the “kcat (ABTS)” value was found to be 0.333 ± 0.017 s⁻¹ in series [1] (setting [9]); 12.7 ± 0.5 s⁻¹ in series [2] (setting [9]); 30 ± 1.67 s⁻¹ in series [3] (setting [9]); 8.83 ± 0.333 s⁻¹ in series [4] (setting [9]); 41.67 ± 1.67 s⁻¹ in series [5]; 63.33 ± 5 s⁻¹ in series [6]. Besides, the Km in series [1] (setting [10]) amounted to 60 ± 4 µM; in series [2] (setting [10]), 125 ± 13 µM; in series [3] (setting [10]) it was 43 ± 3 µM.

Turning to `COc1cc(C=NN=Cc2cc(OC)c(O)c(OC)c2)cc(OC)c1O` [SGZ, syringaldazine], the “kcat (SGZ)” value in series [1] (setting [9]) is 0.0183 ± 0.0017 s⁻¹; in series [2] (setting [9]) it was 4.25 ± 0.183 s⁻¹; in series [3] (setting [9]), 55 ± 1.67 s⁻¹; in series [4] (setting [9]), 6 ± 0.333 s⁻¹; in series [5], 9.17 ± 0.667 s⁻¹. For the same molecule, the Km came to 3.9 ± 0.3 µM in series [1] (setting [11]), 35 ± 4 µM in series [2] (setting [11]), 1.8 ± 0.2 µM in series [3] (setting [11]) and 0.9 ± 0.2 µM in series [4] (setting [11]).

B1: Myceliophthora thermophila laccase (lcc-1; MtL), wild type (pRaMB17), SEQ ID NO:27 (Thermothelomyces thermophilus ATCC 42464) (protein)
chain: QQSCNTPSNRACWTDGYDINTDYEVDSPDTGVVRPYTLTLTEVDNWTGPDGVVKEKVMLVNNSIIGPTIFADWGDTIQVTVINNLETNGTSIHWHGLHQKGTNLHDGANGITECPIPPKGGRKVYRFKAQQYGTSWYHSHFSAQYGNGVVGAIQINGPASLPYDTDLGVFPISDYYYSSADELVELTKNSGAPFSDNVLFNGTAKHPETGEGEYANVTLTPGRRHRLRLINTSVENHFQVSLVNHTMCIIAADMVPVNAMTVDSLFLGVGQRYDVVIEANRTPGNYWFNVTFGGGLLCGGSRNPYPAAIFHYAGAPGGPPTDEGKAPVDHNCLDLPNLKPVVARDVPLSGFAKRADNTLDVTLDTTGTPLFVWKVNGSAINIDWGRAVVDYVLTQNTSFPPGYNIVEVNGADQWSYWLIENDPGAPFTLPHPMHLHGHDFYVLGRSPDESPASNERHVFDPARDAGLLSGANPVRRDVSMLPAFGWVVLSFRADNPGAWLFHCHIAWHVSGGLGVVYLERADDLRGAVSDADADDLDRLCADWRRYWPTNPYPKSDSGL
With B1, the Km in series [7] (other: MtL wt) came out at 110 ± 20 µM; in series [8] (other: MtL wt), 1.4 ± 0.2 µM.

B2: Rhizoctonia solani laccase isozyme 4 (rsl4; RsL), wild type (pJiWa59), SEQ ID NO:25 (Thanatephorus cucumeris) (protein)
chain: AVRNYKFDIKNVNVAPDGFQRPIVSVNGLVPGTLITANKGDTLRINVTNQLTDPSMRRATTIHWHGLFQATTADEDGPAFVTQCPIAQNLSYTYEIPLHGQTGTMWYHAHLASQYVDGLRGPLVIYDPNDPHKSRYDVDDASTVVMLEDWYHTPAPVLEKQMFSTNNTALLSPVPDSGLINGKGRYVGGPAVPRSVINVKRGKRYRLRVINASAIGSFTFSIEGHRLTVIEADGIPHQPLPVDSFQIYAGQRYSVIVEANQTAANYWIRAPMTVAGAGTNANLDPTNVFAVLHYEGAPNAEPTTEQGSAIGTALVEENLHALINPGAPGGSAPADVSLNLAIGRSTVDGILRFTFNNIKYEAPSLPTLLKILANNASNDADFTPNEHTIVLPHNKVIGAQHHRGADHPIHLHGHVFDIVKSLGGTPNYVNPPRRDVVRVGGTGVVLRFKADNPGPWFVHCHIDCTWRLGSHLSLPRPPARFARVSSRSSPTMPGTSSAPSTRLFLPICSKW
For B2, the Km in series [7] (other: RsL wt) is 52 ± 6 µM; in series [8] (other: RsL wt), 28 ± 4 µM.
